Experimental data published in ChEMBL document CHEMBL1201862, “PubChem BioAssay data set” (2004).
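How tested: cells in 96-well plates exposed to compound for 48 hours at five concentrations. At the GI50, growth is halved.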 The source made the active and inactive calls. Rule as the data show it: active = GI50 up to about 1.1 µM and inactive = higher.

Legend:
Test in all cases: NCI tumour cell line growth inhibition, 48 h
ACHN = test system: ACHN
A549 = test system: A549
HT-29 = test system: HT-29
M14 = test system: M14
HL-60 = test system: HL-60
SF-539 = test system: SF-539
LXFL 529 = test system: LXFL 529
RXF 393 = test system: RXF 393
HCT-116 = test system: HCT-116
SK-OV-3 = test system: SK-OV-3
DMS-273 = test system: DMS-273
HCT-15 = test system: HCT-15
Malme-3M = test system: Malme-3M
SNB-75 = test system: SNB-75
OVCAR-8 = test system: OVCAR-8

With `COC1CCC2C(=O)CCCC2O1` (configuration not stated) the GI50 (ACHN) was > 100 µM (inactive), the GI50 (A549) was > 100 µM (inactive) and the GI50 (HT-29) was > 100 µM (inactive). The GI50 (M14) was > 100 µM (inactive), the GI50 (HL-60) was > 100 µM (inactive) and the GI50 (SF-539) was > 100 µM (inactive). The GI50 (LXFL 529) was > 100 µM (inactive), the GI50 (RXF 393) was > 100 µM (inactive) and the GI50 (HCT-116) was > 100 µM (inactive). The GI50 (SK-OV-3) was > 100 µM (inactive), the GI50 (DMS-273) was > 100 µM (inactive) and the GI50 (HCT-15) was > 100 µM. For the same compound, the GI50 (Malme-3M) was > 100 µM (inactive), the GI50 (SNB-75) was > 100 µM (inactive) and the GI50 (OVCAR-8) was > 100 µM (inactive).

With `Cc1cccc(C(C)(C)C)c1NC(=O)CCl` the GI50 (ACHN) was > 100 µM (inactive), the GI50 (A549) was > 100 µM (inactive) and the GI50 (HT-29) was > 100 µM (inactive). For the same compound, the GI50 (M14) was > 100 µM (inactive), the GI50 (HL-60) was > 100 µM (inactive) and the GI50 (SF-539) was > 100 µM (inactive). For the same compound, the GI50 (LXFL 529) was > 100 µM (inactive), the GI50 (RXF 393) was > 100 µM (inactive) and the GI50 (HCT-116) was > 100 µM (inactive). The GI50 (SK-OV-3) was > 100 µM (inactive), the GI50 (DMS-273) was > 100 µM (inactive) and the GI50 (Malme-3M) was > 100 µM (inactive). The GI50 (SNB-75) was > 100 µM (inactive) and the GI50 (OVCAR-8) was > 100 µM (inactive).

`CN(C)c1ncnc2c1Cc1ccccc1C(=O)N2C` was tested, and the GI50 (ACHN) was > 100 µM (inactive), the GI50 (A549) was > 100 µM (inactive) and the GI50 (HT-29) was > 100 µM (inactive). For the same compound, the GI50 (M14) was > 100 µM (inactive), the GI50 (HL-60) was > 100 µM (inactive) and the GI50 (SF-539) was > 100 µM (inactive). The GI50 (LXFL 529) was > 100 µM (inactive), the GI50 (RXF 393) was > 100 µM (inactive) and the GI50 (HCT-116) was > 100 µM (inactive). The GI50 (SK-OV-3) was > 100 µM (inactive), the GI50 (DMS-273) was > 100 µM (inactive) and the GI50 (Malme-3M) was > 100 µM (inactive). For the same compound, the GI50 (SNB-75) was > 100 µM (inactive) and the GI50 (OVCAR-8) was > 100 µM (inactive).

`C/C(=N\NC(=S)N1CCC(C2CCN(C(=S)N/N=C(\C)c3ccccn3)CC2)CC1)c1ccccn1` was tested, and the GI50 (ACHN) was 53.7 µM (inactive), the GI50 (A549) was 55 µM (inactive) and the GI50 (HT-29) was > 100 µM (inactive). The GI50 (M14) was > 100 µM (inactive), the GI50 (HL-60) was > 100 µM (inactive) and the GI50 (SF-539) was 51.3 µM (inactive). The GI50 (LXFL 529) was 55.3 µM (inactive), the GI50 (RXF 393) was 71.8 µM (inactive) and the GI50 (HCT-116) was 29.2 µM (inactive). The GI50 (SK-OV-3) was 38.4 µM (inactive), the GI50 (DMS-273) was 64.1 µM (inactive) and the GI50 (Malme-3M) was > 100 µM (inactive). For the same compound, the GI50 (SNB-75) was 28.2 µM (inactive) and the GI50 (OVCAR-8) was 46.7 µM (inactive).

In the case of `CN(C)CCS/C(=N\c1ccccc1)N1CCCCC1`, the GI50 (ACHN) is reported as 16.5 µM (inactive), the GI50 (A549) is reported as 91.8 µM (inactive) and the GI50 (HT-29) is reported as 17.9 µM (inactive). The GI50 (M14) was 16.4 µM (inactive), the GI50 (HL-60) was 11.4 µM (inactive) and the GI50 (SF-539) was 20.2 µM (inactive). For the same compound, the GI50 (LXFL 529) was 15.9 µM (inactive), the GI50 (RXF 393) was 18.2 µM (inactive) and the GI50 (HCT-116) was 19.7 µM (inactive). For the same compound, the GI50 (SK-OV-3) was 75.7 µM (inactive), the GI50 (DMS-273) was 16.7 µM (inactive) and the GI50 (HCT-15) was 16.4 µM. For the same compound, the GI50 (Malme-3M) was 18.9 µM (inactive), the GI50 (SNB-75) was 21.8 µM (inactive) and the GI50 (OVCAR-8) was 17.5 µM (inactive).

With `Cn1c(=O)c(C(c2ccccc2)c2c(O)c3ccccc3n(C)c2=O)c(O)c2ccccc21` the GI50 (ACHN) was > 100 µM (inactive), the GI50 (A549) was > 100 µM (inactive) and the GI50 (HT-29) was > 100 µM (inactive). The GI50 (M14) was > 100 µM (inactive), the GI50 (HL-60) was 32.4 µM (inactive) and the GI50 (SF-539) was > 100 µM (inactive). For the same compound, the GI50 (LXFL 529) was > 100 µM (inactive), the GI50 (RXF 393) was > 100 µM (inactive) and the GI50 (HCT-116) was > 100 µM (inactive). For the same compound, the GI50 (SK-OV-3) was > 100 µM (inactive), the GI50 (DMS-273) was > 100 µM (inactive) and the GI50 (HCT-15) was > 10 µM. For the same compound, the GI50 (Malme-3M) was > 100 µM (inactive), the GI50 (SNB-75) was 38.1 µM (inactive) and the GI50 (OVCAR-8) was > 100 µM (inactive).

`CC(C)CCCC(C)[C@H]1CCC2[C@H]3C(CC[C@@]21C)[C@@]1(C)CCC=C[C@]12C[C@@H]2[C@@H]3O` (some centres not stated) was tested, and the GI50 (ACHN) was > 100 µM (inactive), the GI50 (A549) was > 100 µM (inactive) and the GI50 (HT-29) was > 100 µM (inactive). The GI50 (M14) was > 100 µM (inactive), the GI50 (HL-60) was > 100 µM (inactive) and the GI50 (SF-539) was > 100 µM (inactive). The GI50 (LXFL 529) was > 100 µM (inactive), the GI50 (RXF 393) was > 100 µM (inactive) and the GI50 (HCT-116) was > 100 µM (inactive). For the same compound, the GI50 (SK-OV-3) was > 100 µM (inactive), the GI50 (DMS-273) was > 100 µM (inactive) and the GI50 (HCT-15) was > 100 µM. For the same compound, the GI50 (Malme-3M) was > 100 µM (inactive), the GI50 (SNB-75) was > 100 µM (inactive) and the GI50 (OVCAR-8) was > 100 µM (inactive).

With `C=C1CC[C@@H]2C(C)(C)C(O)CCC2(C)C1COc1ccc2ccc(=O)oc2c1` (some centres not stated) the GI50 (ACHN) was 16.8 µM (inactive), the GI50 (A549) was 17.2 µM (inactive) and the GI50 (HT-29) was 18.9 µM (inactive). The GI50 (M14) was 18.6 µM (inactive), the GI50 (HL-60) was 15.1 µM (inactive) and the GI50 (SF-539) was 16.8 µM (inactive). The GI50 (LXFL 529) was 11.2 µM (inactive), the GI50 (RXF 393) was 15.3 µM (inactive) and the GI50 (HCT-116) was 15.5 µM (inactive). The GI50 (SK-OV-3) was 23.4 µM (inactive), the GI50 (DMS-273) was 14.3 µM (inactive) and the GI50 (HCT-15) was 14.1 µM. The GI50 (Malme-3M) was 18.1 µM (inactive), the GI50 (SNB-75) was 18 µM (inactive) and the GI50 (OVCAR-8) was 17.2 µM (inactive).

With `COc1ccc(NCc2cc(OC)cc(OC)c2)cc1` the GI50 (ACHN) was 45.6 µM (inactive), the GI50 (A549) was 17.6 µM (inactive) and the GI50 (HT-29) was 6.7 µM (inactive). The GI50 (M14) was 22.2 µM (inactive), the GI50 (HL-60) was 7.6 µM (inactive) and the GI50 (SF-539) was 16.3 µM (inactive). The GI50 (LXFL 529) was 26.2 µM (inactive), the GI50 (RXF 393) was 13.7 µM (inactive) and the GI50 (HCT-116) was 15.6 µM (inactive). For the same compound, the GI50 (SK-OV-3) was 30.1 µM (inactive), the GI50 (DMS-273) was 6.15 µM (inactive) and the GI50 (HCT-15) was 10.3 µM. The GI50 (Malme-3M) was 40.4 µM (inactive), the GI50 (SNB-75) was 23.4 µM (inactive) and the GI50 (OVCAR-8) was 49.1 µM (inactive).
